{"source": "patent US20150202179A1", "about": "“FATTY ACID DERIVATIVES FOR USE IN A METHOD OF TREATING DEPRESSION AND ASSOCIATED CONDITIONS” (YISSUM RESEARCH DEVELOPMENT COMPANY OF THE HEBREW …, priority 2012, published 2015)", "key": {"[1]": {"test_system": "Norepinephrine (NE) levels", "assay": "Norepinephrine (NE) determination in brain tissue by HPLC with electrochemical detection", "format": "in vivo, mice", "conditions": "for NE: ng/g wet tissue +/− SEM; for norepinephrine levels in the hippocampus vs. control / norepinephrine levels in the hypothalamus vs. control: result in words", "method": "(§1) Solution of DHBA as internal standard in the concentration of: 1 μg/ml in 0.1M perchloric acid, were prepared. Standard solutions of NE and 5HT in the concentration of 1-0.1 μg/ml in 0.1M perchloric acid were prepared.\n(§2) Tissues (hypothalamus and hippocampus) obtained from 6-8 mice were dissected on ice surface and kept at −80 C. Hypothalamus (HT) or hippocampus (HC) from 1 mice were weighted (weight of HT −10-20 mg, HC 30-40 mg) and placed in eppendorf micro-centrifuge tube, 1.5 ml. To each tube was added 120-160 μl of ice cold solution of Perchloric acid and DHBA, homogenized in ice bath on Sonics vibra cell, 3×20 sec., 0.4 watts and centrifuged at 14,000×g at 4° C. 10 min. Supernatant gained was stored in ice before analysis.\n(§3) The HPLC system consisted of Jasco PU-980 pump, Jasco AS-950-10 autosampler cooled at 4° C., H3 ODS-125A 3 μm 125 mm×4.6 mm i.d. analytical column (Hichrom, UK) were used. Electrochemical detector Coulochem ESA 5100A with analytical cell model 5011 was used for control detector voltage and record the current. Working electrode was set at potential +350 mV. Control and data collection/processing were handled through Borwin chromatography software.\n(§4) The mobile phase composition: A stock buffer was prepared as follows: 20 mM sodium dihydrogenorthophosphate, EDTA 3 mg/l, 1-heptanesulfonic acid 1 g/l were dissolved in 1 liter deionized distilled water and buffered to pH 3.7 using concentrated phosphoric acid. To prepare the mobile phase buffer was mixed with acetonitrile (Baker HPLC analyzed) in the ratio 85:15 (v/v), filtered through a 0.2 μm membrane filter and degassed under vacuum after mixing. Mobile phase flow rate 1 ml/min. Injection volume 20 μl, retention time for DHBA 4.2 min., norepinephrine—3.1 min., 5HT 8.6 min. For calibration curve 1 ug/ml solution of DHBA together with 1.0-0.1 μg/ml solutions of 5HT and NE were used. The ratio between 5HT or NE and DHBA used to calculate the level of 5HT and NE in the sample. Date are given in ng/g wet tissue +/−SEM."}, "leptin": {"test_system": "leptin", "assay": "Leptin levels in the hypothalamus", "format": "in vivo, BALB/c mice", "conditions": "FIG. 15", "source_text": "50, 2 month old female BALB/c mice, 10 mice per group, on ad libitum diet were separated (each mouse in a different cage) for 9 days (Separation Stress, a model for depression)."}, "serotonin (5HT) levels": {"test_system": "serotonin (5HT) levels", "assay": "Serotonin (5HT) determination in brain tissue by HPLC with electrochemical detection", "format": "in vivo, mice", "conditions": "for 5HT: ng/g wet tissue +/− SEM; for 5HT levels in the hippocampus vs. control / 5HT levels in the hypothalamus vs. control: result in words", "method": "as §1, §2, §3, §4"}, "NPY protein": {"test_system": "NPY protein", "assay": "NPY protein expression by western blot", "format": "in vivo, BALB/c mice", "conditions": "FIG. 13", "method": "(§5) 50, 2 month old female BALB/c mice, 10 mice per group, on ad libitum diet were separated (each mouse in a different cage) for 9 days (Separation Stress, a model for depression). On the 7, 8, 9, 34-40 days mice were administered with either vehicle or compounds X, 12 and 15 (1 mg/kg i.p.) or imipramine 10 mg/kg (antidepressant)."}, "[2]": {"assay": "Weight and food consumption in Sabra mice", "format": "in vivo", "method": "140 Female Sabra Mice 12 weeks old are divided to […] 10 mice in each group with equal weight. Mice are administered I.P. with either saline or 1 mg/kg Fluoxetine (PROZAC), compound 1, 4, 5, 7, 10, 11, 12, 13, 14, 15, 19, 26 for a 4 weeks period. On day 30 and on, mice were tested by the following behavioral tests. […]"}, "[3]": {"assay": "Novelty Suppressed Feeding Test (NSFT), separated BALB/c mice", "format": "in vivo", "conditions": "compounds 1 mg/kg i.p., day 9", "method": "(§6) Novelty suppressed feeding test (NSFT): After the last treatment injection, all food is removed from the cage for 24 hours (water available ad libitum). At the end of this time, the animal is introduced into a 50×50×20 (height) cm wooden arena the floor of which is marked with equal rectangles of 10×10 cm. A pellet of food is placed on an elevated surface in the center of the arena. The time elapsing from the introduction of the animal into the arena until it commences eating (latency to feed) is recorded. The animal is removed from the arena immediately after it begins to eat or after not doing so for 5 min. During the test, the number of lines crossed by the animal is counted as a measure of motor activity, and calibrated for 5 min if the animal started eating before that. After the test, the animal is immediately transferred to its home cage and left to consume a previously weighed amount of food for 10 minutes. On completion of this period the food is weighed again to calculate the home cage food consumption.\nas §5, with “34-40,” for “34-40”, “x,” for “X,”, “(antidepressant) i.p. and tested in Novel Suppressed Feeding Test on day 9.” for “(antidepressant).”\nas §6, with “FIGS. 9A-9C show the results of the NSFT. […]” for “Novelty suppressed feeding test (NSFT):”, “hours.” for “hours (water available ad libitum).”, “into” for “into a 50×50×20 (height) cm wooden arena”, “open field test.” for “floor of which is marked with equal rectangles of 10×10 cm.”, “to find” for “elapsing from”, “food was” for “introduction of the animal into the arena until it commences eating (latency to feed) is”"}}, "note": "Where two headings read alike, the source gives them in different places.", "data": [{"compound": "CCCCCCCC/C=C\\CCCCCCCC(=O)N[C@H](CO)C(C)C", "note": "[Compound 1, oleoyl-L-valinol amide]", "values": [{"measurement": "NE", "setting": "[1]; Hippocampus", "value": "283.28 ± 24", "unit": "ng/g"}, {"measurement": "NE", "setting": "[1]; Hypothalamus", "value": "1090 ± 10.4", "unit": "ng/g"}, {"measurement": "norepinephrine levels in the hippocampus vs. control", "setting": "[1]", "value": "significantly enhanced"}, {"measurement": "norepinephrine levels in the hippocampus vs. control", "setting": "[1]; listed as X", "value": "increase significantly"}, {"measurement": "norepinephrine levels in the hypothalamus vs. control", "setting": "[1]", "value": "significantly enhanced"}, {"measurement": "norepinephrine levels in the hypothalamus vs. control", "setting": "[1]; listed as X", "value": "increased significantly"}, {"measurement": "leptin levels in the hypothalamus", "setting": "leptin", "value": "tendency to increase"}, {"measurement": "5HT", "setting": "serotonin (5HT) levels; Hippocampus", "value": "342.2 ± 33", "unit": "ng/g"}, {"measurement": "5HT", "setting": "serotonin (5HT) levels; Hypothalamus", "value": "854.4 ± 16.8", "unit": "ng/g"}, {"measurement": "5HT levels in the hippocampus vs. control", "setting": "serotonin (5HT) levels", "value": "significantly enhanced"}, {"measurement": "5HT levels in the hippocampus vs. control", "setting": "serotonin (5HT) levels; listed as X", "value": "increased significantly"}, {"measurement": "5HT levels in the hypothalamus vs. control", "setting": "serotonin (5HT) levels", "value": "significantly enhanced"}, {"measurement": "5HT levels in the hypothalamus vs. control", "setting": "serotonin (5HT) levels; listed as X", "value": "increased significantly"}, {"measurement": "NPY protein expression in the hypothalamus", "setting": "NPY protein", "value": "decrease significantly"}, {"measurement": "food consumption", "setting": "[2]", "value": "significant decrease"}, {"measurement": "weight (weight loss)", "setting": "[2]", "value": "significant decrease"}, {"measurement": "weight (weight loss)", "setting": "[2]; listed as OVA", "value": "decreased body weight"}, {"measurement": "weight (weight loss)", "setting": "[2]; listed as X", "value": "significant weight loss"}, {"measurement": "food intake in NSFT", "setting": "[3]; in relation to vehicle and more than imipramine 10 mg/kg", "value": "significantly enhanced food intake"}, {"measurement": "motor activity in NSFT", "setting": "[3]; resembled imipramine 10 mg/kg", "value": "enhanced motor activity"}]}]}
